IC50 data for 61 compounds are collected here from US20130310379A1, “MODULATORS OF METHYL MODIFYING ENZYMES, COMPOSITIONS AND USES THEREOF” (CONSTELLATION PHARMACEUTICALS, priority 2010, published 2013).

The IC50 is the midpoint of a concentration-inhibition curve.

Chain of EZH2 (Q15910 whole entry): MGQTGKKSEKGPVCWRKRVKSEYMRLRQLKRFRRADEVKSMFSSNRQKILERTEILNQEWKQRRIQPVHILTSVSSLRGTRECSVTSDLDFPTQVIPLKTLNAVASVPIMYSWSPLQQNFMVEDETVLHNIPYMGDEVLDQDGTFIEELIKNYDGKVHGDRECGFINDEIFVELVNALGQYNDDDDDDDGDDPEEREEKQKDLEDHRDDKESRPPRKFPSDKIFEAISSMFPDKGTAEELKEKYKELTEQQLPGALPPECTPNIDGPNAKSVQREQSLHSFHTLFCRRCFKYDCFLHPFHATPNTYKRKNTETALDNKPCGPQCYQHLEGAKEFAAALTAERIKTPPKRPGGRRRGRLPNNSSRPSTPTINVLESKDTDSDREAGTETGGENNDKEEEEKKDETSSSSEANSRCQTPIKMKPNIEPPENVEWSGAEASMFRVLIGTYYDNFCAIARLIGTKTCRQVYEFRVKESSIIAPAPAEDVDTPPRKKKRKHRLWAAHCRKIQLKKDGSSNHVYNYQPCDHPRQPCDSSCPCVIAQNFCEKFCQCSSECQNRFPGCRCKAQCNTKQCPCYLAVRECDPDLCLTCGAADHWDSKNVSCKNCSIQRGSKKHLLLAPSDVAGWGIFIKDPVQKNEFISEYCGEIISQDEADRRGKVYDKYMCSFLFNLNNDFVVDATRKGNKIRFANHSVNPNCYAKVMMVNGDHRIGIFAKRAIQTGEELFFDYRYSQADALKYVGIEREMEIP
Chain of EZH2 (O75530 whole entry partner): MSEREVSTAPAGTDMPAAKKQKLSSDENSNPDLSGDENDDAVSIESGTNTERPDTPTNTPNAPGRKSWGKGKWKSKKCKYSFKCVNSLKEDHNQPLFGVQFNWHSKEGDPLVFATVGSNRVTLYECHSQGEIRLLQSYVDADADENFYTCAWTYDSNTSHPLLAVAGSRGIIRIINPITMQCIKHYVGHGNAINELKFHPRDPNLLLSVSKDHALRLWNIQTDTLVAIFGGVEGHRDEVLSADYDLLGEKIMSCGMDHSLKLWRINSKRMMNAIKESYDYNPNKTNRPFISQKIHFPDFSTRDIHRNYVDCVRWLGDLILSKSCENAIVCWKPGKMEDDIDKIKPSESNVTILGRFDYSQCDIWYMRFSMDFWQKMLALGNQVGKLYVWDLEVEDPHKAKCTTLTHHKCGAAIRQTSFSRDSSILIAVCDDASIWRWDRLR
Chain of EZH2 (Q15022 whole entry partner): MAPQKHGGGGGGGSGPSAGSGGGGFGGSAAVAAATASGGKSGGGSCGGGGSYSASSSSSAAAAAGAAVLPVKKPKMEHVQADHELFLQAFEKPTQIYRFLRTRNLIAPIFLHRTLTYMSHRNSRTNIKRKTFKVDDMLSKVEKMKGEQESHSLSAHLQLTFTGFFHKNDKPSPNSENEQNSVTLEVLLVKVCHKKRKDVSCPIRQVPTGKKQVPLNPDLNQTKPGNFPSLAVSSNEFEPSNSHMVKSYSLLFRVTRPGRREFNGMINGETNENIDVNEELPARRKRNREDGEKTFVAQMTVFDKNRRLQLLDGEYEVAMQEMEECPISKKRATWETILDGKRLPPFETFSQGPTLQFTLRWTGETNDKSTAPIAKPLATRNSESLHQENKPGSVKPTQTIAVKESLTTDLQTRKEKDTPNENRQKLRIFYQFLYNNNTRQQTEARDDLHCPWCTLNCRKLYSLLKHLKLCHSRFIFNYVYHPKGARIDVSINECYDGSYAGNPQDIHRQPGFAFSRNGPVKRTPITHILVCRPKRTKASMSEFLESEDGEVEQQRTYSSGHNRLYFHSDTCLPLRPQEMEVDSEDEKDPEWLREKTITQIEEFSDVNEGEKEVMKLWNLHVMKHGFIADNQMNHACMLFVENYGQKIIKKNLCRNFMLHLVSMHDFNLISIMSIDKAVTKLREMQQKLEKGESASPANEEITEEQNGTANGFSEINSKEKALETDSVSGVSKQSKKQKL

The experiment addresses EZH2 (Homo sapiens, UniProt Q15910). In words: EZH2 assay: rPRC2 with biotinylated oligonucleosome substrates and 3H SAM, FlashPlate scintillation counting, IC50. The experiment is classed as biochemical. Conditions: rPRC2, biotinylated oligonucleosome substrates, 3H SAM; read-out: EZH2 IC50. The method in brief:
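rPRC2 (2 nM EZH2) pre-incubated 20 min with compound (80 to 0.16 uM, ten 2-fold steps), then 60 min reaction with 0.2 uM 3H SAM, 0.2 uM biotinylated oligonucleosomes, 3.6 uM H3K27me3 peptide in Tris pH 8.5. SAH/EDTA quench; 4-parameter IC50 fit.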
As for `CC1CC(NC(=O)c2ccc(Oc3ccccc3C#N)c(Cl)c2)CC(C)N1` (stereo not shown) [Compound I-467], the IC50 lay in the range of 20 to 80 µM.

On to `CC1(C)CC(NC(=O)c2ccc(Oc3cccc(CC(N)=O)c3C#N)c(Cl)c2)CC(C)(C)N1` [Compound I-469], for which the IC50 is below 5 µM.

As for `CC1(C)CC(NC(=O)N2CCC(c3ccccc3)C2)CC(C)(C)N1` (stereo not shown) [Compound I-470], the IC50 is above 80 µM.

In the case of `COc1cc(C(=O)NC2CC(C)(C)NC(C)(C)C2)cc2c1OCCO2` [Compound I-471], the IC50 was above 80 µM.

For `CC1CC(NC(=O)c2ccc(Oc3cccc(-c4ccnnc4)c3C#N)c(Cl)c2)CC(C)N1` (stereo not shown) [Compound I-472], the IC50 is below 5 µM.

For the compound `N#Cc1c(Oc2ccc(C(=O)NC3CCN(CCO)CC3)cc2Cl)cccc1-c1ccnnc1` [Compound I-474], the IC50 fell in the range of 20 to 80 µM.

In the case of `N#CCN1CCC(NC(=O)c2ccc(Oc3cccc(-c4ccnnc4)c3C#N)c(Cl)c2)CC1` [Compound I-475], the IC50 was above 80 µM.

On to `Cn1cc(-c2cccc(Oc3ccc(C(=O)NC4CC(C)(C)NC(C)(C)C4)cc3Cl)c2C#N)ccc1=O` [Compound I-476], for which the IC50 was below 5 µM.

With `CC1(C)CC(NC(=O)c2ccc(Oc3cccc(-c4ccnnc4)c3C#N)c(Cl)c2)CC(c2ccccc2)N1` (stereo not shown) [Compound I-477], the IC50 is below 5 µM.

In the case of `CC1CC(NC(=O)c2ccc(Oc3cccc(-c4ccnnc4)c3C#N)c(Cl)c2)CC(C)(C)N1` (stereo not shown) [Compound I-478], the IC50 is below 5 µM.

Turning to `CC(C#N)c1cccc(Oc2ccc(C(=O)NC3CC(C)(C)NC(C)(C)C3)cc2Cl)c1` (stereo not shown) [Compound I-479], the IC50 lay in the range of 20 to 80 µM.

`CC1(C)CC(CC(=O)O)(NC(=O)c2ccc(Oc3cccc(-c4ccnnc4)c3C#N)c(Cl)c2)CC(C)(C)N1` [Compound I-482]: the IC50 was 20 to 80 µM.

As to `CC1(C)CC(NC(C(=O)O)c2ccc(Oc3ccccc3C#N)c(Cl)c2)CC(C)(C)N1` (stereo not shown) [Compound I-483], the IC50 is above 80 µM.

With `CC(c1ccccc1C#N)N1CCN(C(=O)NC2CC(C)(C)NC(C)(C)C2)CC1=O` (stereo not shown) [Compound I-484], the IC50 is above 80 µM.

For the compound `N#CCCN1CCC(NC(=O)c2ccc(Oc3cccc(-c4ccnnc4)c3C#N)c(Cl)c2)CC1` [Compound I-485], the IC50 lay within 20 to 80 µM.

Regarding `N#Cc1c(Oc2ccc(C(=O)NC3CCN(CCN)CC3)cc2Cl)cccc1-c1ccnnc1` [Compound I-486], the half-inhibitory concentration (IC50) lay within 5 to 20 µM.

In the case of `CC1(C)CC(NC(=O)c2ccc(Oc3cccc(OCC(N)=O)c3C#N)c(Cl)c2)CC(C)(C)N1` [Compound I-487], the IC50 was below 5 µM.

`Cc1nnc2n1-c1ccccc1C(c1ccc(C(=O)NC3CC(C)(C)NC(C)(C)C3)cc1)=NC2` [Compound I-488]: the IC50 was above 80 µM.

As to `CC1(C)CC(NC(=O)c2ccc(Oc3ccccc3C#N)c(Cl)c2)CC(C)(C)N1CCCO` [Compound I-489, 3-chloro-4-(2-cyanophenoxy)-N-(1-(3-hydroxypropyl)-2,2,6,6-tetramethylpiperidin-4-yl)benzamide], the IC50 is below 5 µM.

Take `CC1(C)CC(NC(=O)c2ccc(-n3ncc4c(Br)cccc43)c(Cl)c2)CC(C)(C)N1` [Compound I-490]: the IC50 lay within 5 to 20 µM.

Regarding `CC1(C)CC(NC(=O)c2ccc(Oc3ccccc3C#N)c(Cl)c2)CC(=O)N1` (stereo not shown) [Compound I-491], the IC50 was above 80 µM.

For `CC1(C)CC(NC(=O)c2ccc(-n3ccc4c(O)cccc43)c(Cl)c2)CC(C)(C)N1` [Compound I-492], the IC50 was below 5 µM.

Turning to `CC1(C)CC(NC(=O)c2ccc(-n3ccc4cc(O)ccc43)c(Cl)c2)CC(C)(C)N1` [Compound I-494], the IC50 lay in the range of 20 to 80 µM.

In the case of `CC1(C)CC(NC(=O)c2ccc(-n3cccn3)c(Cl)c2)CC(C)(C)N1` [Compound I-496], the IC50 was above 80 µM.

Consider `CC1(C)CC(NC(=O)c2ccc(N3CCc4cccc(O)c4C3=O)c(Cl)c2)CC(C)(C)N1` [Compound I-498], for which the IC50 lay within 5 to 20 µM.

In the case of `COc1cc(-c2cccc(Oc3ccc(C(=O)NC4CC(C)(C)NC(C)(C)C4)cc3Cl)c2C#N)ccn1` [Compound I-500], the IC50 was below 5 µM.

As for `CC1(C)CC(NC(=O)c2ccc(Oc3cccc(CCC(N)=O)c3C#N)c(Cl)c2)CC(C)(C)N1` [Compound I-501], the IC50 is below 5 µM.

`CC1(C)CC(NC(=O)c2ccc(Oc3cccc(NCC(N)=O)c3C#N)c(Cl)c2)CC(C)(C)N1` [Compound I-502]: the IC50 is below 5 µM.

`CC1(C)CC(NC(=O)c2ccc(Oc3ccccc3C#N)c(Cl)c2)CCN1` (stereo not shown) [Compound I-503]: the IC50 was in the range of 5 to 20 µM.

Turning to `CC1(C)CC(NC(=O)c2ccc(Oc3cccc(-c4cccc(C#N)c4)c3C#N)c(Cl)c2)CC(C)(C)N1` [Compound I-505], the IC50 is below 5 µM.

Regarding `CC1(C)CC(NC(=O)c2ccc(Oc3cccc(-c4ccc(C#N)cc4)c3C#N)c(Cl)c2)CC(C)(C)N1` [Compound I-506], the IC50 is below 5 µM.

Regarding `CC1(C)CC(C)(NC(=O)c2ccc(Oc3cccc(-c4ccnnc4)c3C#N)c(Cl)c2)CC(C)(C)N1` [Compound I-507], the IC50 lay within 20 to 80 µM.

Turning to `Cc1cc(C(=O)NC2CC(C)(C)NC(C)(C)C2)ccc1Oc1cccc(-c2ccnnc2)c1C#N` [Compound I-508], the IC50 was below 5 µM.

For `CC1(C)CC(NC(=O)c2ccc(Oc3cccc(-c4ccnnc4)c3C#N)c(Cl)c2)CC(C)(C)S1` [Compound I-517], the IC50 lay within 5 to 20 µM.

As to `CC1(C)CC(NC(=O)c2ccc(Oc3cccc(-c4ccnnc4)c3C#N)c(Cl)c2)CC(C)(C)[S+]1[O-]` (stereo not shown) [Compound I-518], the IC50 lay in the range of 20 to 80 µM.

With `CC1(C)CC(NC(=O)c2ccc(Oc3cccc(-c4ccnnc4)c3C#N)c(Cl)c2)CC(=O)N1` (stereo not shown) [Compound I-519], the IC50 was in the range of 20 to 80 µM.

Turning to `CC1(C)CC(NC(=O)c2ccc(Oc3cncc(-c4ccncc4)c3C#N)c(Cl)c2)CC(C)(C)N1` [Compound I-520], the IC50 is below 5 µM.

In the case of `CC1(C)CC(NC(=O)c2ccc(N3C(=O)COc4ccccc43)c(Cl)c2)CC(C)(C)N1` [Compound I-522], the IC50 lay in the range of 20 to 80 µM.

As to `CC1(C)CC(NC(=O)c2ccc(Oc3cccc4c3C(=O)NCC4)c(Cl)c2)CC(C)(C)N1` [Compound I-525], the half-maximal inhibitory concentration (IC50) was 5 to 20 µM.

In the case of `CC1(C)CC(NC(=O)c2ccc(Oc3cccc(-c4ccc(C#N)nc4)c3C#N)c(Cl)c2)CC(C)(C)N1` [Compound I-526], the IC50 is below 5 µM.

In the case of `CC1(C)CC(NC(=O)c2ccc(Oc3cccc(-c4ccc(C(N)=O)nc4)c3C#N)c(Cl)c2)CC(C)(C)N1` [Compound I-527], the IC50 was below 5 µM.

Consider `CC1(C)CC(NC(=O)c2ccc(Oc3cccc(-c4cncc(F)c4)c3C#N)c(Cl)c2)CC(C)(C)N1` [Compound I-528], for which the IC50 was below 5 µM.

For the compound `CC1(C)CC(NC(=O)c2ccc(Oc3cccc(C4=CCOCC4)c3C#N)c(Cl)c2)CC(C)(C)N1` [Compound I-529], the IC50 was below 5 µM.

For `CC1(C)CC(NC(=O)c2ccc(Oc3cccc(C4CCOC4)c3C#N)c(Cl)c2)CC(C)(C)N1` (stereo not shown) [Compound I-530], the IC50 was below 5 µM.

Take `CC1(C)CC(NC(=O)c2ccc(Oc3cccc(C4CCOCC4)c3C#N)c(Cl)c2)CC(C)(C)N1` [Compound I-531]: the IC50 is below 5 µM.

Consider `CC1(C)CC(NC(=O)c2ccc(Oc3cccc(C4CCNCC4)c3C#N)cc2)CC(C)(C)N1` [Compound I-534], for which the concentration for half-maximal inhibition (IC50) was below 5 µM.

In the case of `CC1(C)CC(NC(=O)c2ccc(Oc3cccc(C4CCNCC4)c3C#N)c(Cl)c2)CC(C)(C)N1` [Compound I-535], the IC50 was below 5 µM.

Take `CC(=O)N1CCC(c2cccc(Oc3ccc(C(=O)NC4CC(C)(C)NC(C)(C)C4)cc3Cl)c2C#N)CC1` [Compound I-537]: the IC50 was below 5 µM.

In the case of `CC1(C)CC(NC(=O)c2ccc(Oc3cccc(-c4cnc(N)nc4)c3C#N)c(Cl)c2)CC(C)(C)N1` [Compound I-538], the IC50 was below 5 µM.

For `CC1(C)CC(NC(=O)c2ccc(Oc3cccc(-c4ccc(N5CCNCC5)nc4)c3C#N)c(Cl)c2)CC(C)(C)N1` [Compound I-549], the IC50 is below 5 µM.

Turning to `CN1CCN(c2ccc(-c3cccc(Oc4ccc(C(=O)NC5CC(C)(C)NC(C)(C)C5)cc4Cl)c3C#N)cn2)CC1` [Compound I-550], the IC50 was below 5 µM.

`CNC(=O)CCc1cccc(Oc2ccc(C(=O)NC3CC(C)(C)NC(C)(C)C3)cc2Cl)c1C#N` [Compound I-551]: the IC50 is below 5 µM.

For `CN(C)C(=O)CCc1cccc(Oc2ccc(C(=O)NC3CC(C)(C)NC(C)(C)C3)cc2Cl)c1C#N` [Compound I-552], the IC50 was below 5 µM.

`CC1(C)CC(NC(=O)c2ccc(Oc3cccc(CCC(=O)N4CCCC4)c3C#N)c(Cl)c2)CC(C)(C)N1` [Compound I-553]: the half-maximal inhibitory concentration (IC50) is below 5 µM.

Consider `COCCNC(=O)CCc1cccc(Oc2ccc(C(=O)NC3CC(C)(C)NC(C)(C)C3)cc2Cl)c1C#N` [Compound I-554], for which the IC50 is below 5 µM.

For `CN1CCN(C(=O)CCc2cccc(Oc3ccc(C(=O)NC4CC(C)(C)NC(C)(C)C4)cc3Cl)c2C#N)CC1` [Compound I-555], the IC50 is below 5 µM.

As to `CN(C)c1ccc(-c2cccc(Oc3ccc(C(=O)NC4CC(C)(C)NC(C)(C)C4)cc3Cl)c2C#N)cn1` [Compound I-557], the IC50 is below 5 µM.

For the compound `CC(Cc1cccc(Oc2ccc(C(=O)NC3CC(C)(C)NC(C)(C)C3)cc2Cl)c1C#N)C(N)=O` (stereo not shown) [Compound I-559], the IC50 was below 5 µM.

Turning to `CC1(C)CC(NC(=O)c2ccc(Oc3cccc(C4CCCN4)c3C#N)c(Cl)c2)CC(C)(C)N1` (stereo not shown) [Compound I-562], the IC50 was below 5 µM.

Consider `CNC(=O)CC1(NC(=O)c2ccc(Oc3cccc(-c4ccnnc4)c3C#N)c(Cl)c2)CC(C)(C)NC(C)(C)C1` [Compound I-570], for which the IC50 is above 80 µM.

Consider `CC(=O)Nc1ccc(-c2cccc(OCc3ccc(C(=O)NC4CC(C)(C)NC(C)(C)C4)cc3)c2)cn1` [Compound I-593], for which the IC50 was below 5 µM.
